# Several values for one entry are separate records, joined by “and”; a condition that tells them apart may be missing. Equal values may be shown once. Inconclusive results and toxic doses are left out.
# Test system: CD2F1 mice, L1210 leukemia ip, survival T/C
# Experiment: NCI In Vivo Anticancer Drug Screen. Data for tumor model L1210 Leukemia (intraperitoneal) in CD2F1 (CDF1) mice
# Details: higher = longer survival
# Summary of the method: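 Activity against a transplanted murine tumor was judged by comparing the compound group with a vehicle group. The outcome in the treated animals was divided by that in the controls.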
# [1] = endpoint: mean survival time, dose: 100.0 mg/kg/injection, schedule: Q04DX003 (ip), vehicle: saline with Tween-80
# [2] = endpoint: mean survival time, dose: 50.0 mg/kg/injection, schedule: Q04DX002 (ip), vehicle: saline with Tween-80
smiles,measurement,setting,value
O=C1C=CC(=O)N1c1ccc2c(c1)OCO2,T/C,"endpoint: mean survival time, dose: 6.25 mg/kg/injection, schedule: Q01DX009 (ip), vehicle: saline with Tween-80",91 % of control
same,T/C,"endpoint: mean survival time, dose: 12.5 mg/kg/injection, schedule: Q01DX009 (ip), vehicle: saline with Tween-80",86 % of control
CCCCCCCCOC(=O)c1cc([N+](=O)[O-])c(Cl)c([N+](=O)[O-])c1,T/C,"endpoint: mean survival time, dose: 25.0 mg/kg/injection, schedule: Q01DX009 (ip), vehicle: saline with Tween-80",106 % of control
same,T/C,"endpoint: mean survival time, dose: 25.0 mg/kg/injection, schedule: Q04DX003 (ip), vehicle: saline with Tween-80",103 % of control
same,T/C,"endpoint: mean survival time, dose: 50.0 mg/kg/injection, schedule: Q01DX009 (ip), vehicle: saline with Tween-80",101 % of control
same,T/C,"endpoint: mean survival time, dose: 50.0 mg/kg/injection, schedule: Q04DX003 (ip), vehicle: saline with Tween-80",109 % of control
same,T/C,"endpoint: mean survival time, dose: 100.0 mg/kg/injection, schedule: Q01DX009 (ip), vehicle: saline with Tween-80",87 % of control
same,T/C,[1],91 % of control and 98 % of control
CC1=[C-]C=CS1=O.[C-]#[O+].[C-]#[O+].[C-]#[O+].[Mo].[c-]1[c-][c-][cH-][c-]1 (stereo not drawn),T/C,"endpoint: mean survival time, dose: 9.38 mg/kg/injection, schedule: Q04DX002 (ip), vehicle: saline with Tween-80",96 % of control
same,T/C,"endpoint: mean survival time, dose: 18.7 mg/kg/injection, schedule: Q04DX002 (ip), vehicle: saline with Tween-80",96 % of control
same,T/C,"endpoint: mean survival time, dose: 37.5 mg/kg/injection, schedule: Q04DX002 (ip), vehicle: saline with Tween-80",100 % of control
CCC(CCC(C)C1CCC2C3CC=C4CC(I)CCC4(C)C3CCC12C)C(C)C (stereo not drawn),T/C,"endpoint: mean survival time, dose: 100.0 mg/kg/injection, schedule: Q01DX001 (ip), vehicle: saline with Tween-80",90 % of control
same,T/C,"endpoint: mean survival time, dose: 200.0 mg/kg/injection, schedule: Q01DX001 (ip), vehicle: saline with Tween-80",90 % of control
same,T/C,"endpoint: mean survival time, dose: 400.0 mg/kg/injection, schedule: Q01DX001 (ip), vehicle: saline with Tween-80",94 % of control
NC1CCCCC1N.O=S(=O)([O-])CCCN1CCN(CCO)CC1.O=S(=O)([O-])CCCN1CCN(CCO)CC1.[Pt+4],T/C,"endpoint: median survival time, dose: 0.78 mg/kg/injection, schedule: Q04DX003 (ip), vehicle: saline",121 % of control
same,T/C,"endpoint: median survival time, dose: 1.56 mg/kg/injection, schedule: Q04DX003 (ip), vehicle: saline",120 % of control
same,T/C,"endpoint: median survival time, dose: 6.25 mg/kg/injection, schedule: Q04DX003 (ip), vehicle: saline",168 % of control and 175 % of control
same,T/C,"endpoint: median survival time, dose: 12.5 mg/kg/injection, schedule: Q04DX003 (ip), vehicle: saline",212 % of control and 487 % of control
same,T/C,"endpoint: median survival time, dose: 25.0 mg/kg/injection, schedule: Q04DX003 (ip), vehicle: saline",256 % of control and 487 % of control
same,T/C,"endpoint: median survival time, dose: 50.0 mg/kg/injection, schedule: Q04DX003 (ip), vehicle: saline",151 % of control and 170 % of control
CCOC(=O)CCCCCSc1n[nH]c(=O)[nH]c1=O,T/C,"endpoint: mean survival time, dose: 12.5 mg/kg/injection, schedule: Q01DX005 (ip), vehicle: distilled water + Tween-80",102 % of control
same,T/C,"endpoint: mean survival time, dose: 25.0 mg/kg/injection, schedule: Q01DX005 (ip), vehicle: distilled water + Tween-80",103 % of control
same,T/C,"endpoint: mean survival time, dose: 50.0 mg/kg/injection, schedule: Q01DX005 (ip), vehicle: distilled water + Tween-80",92 % of control
same,T/C,"endpoint: mean survival time, dose: 100.0 mg/kg/injection, schedule: Q01DX005 (ip), vehicle: distilled water + Tween-80",102 % of control
same,T/C,"endpoint: mean survival time, dose: 200.0 mg/kg/injection, schedule: Q01DX005 (ip), vehicle: distilled water + Tween-80",102 % of control
CN(C)C(C)(CO)CO,T/C,"endpoint: mean survival time, dose: 100.0 mg/kg/injection, schedule: Q01DX001 (ip), vehicle: saline",98 % of control
same,T/C,"endpoint: mean survival time, dose: 200.0 mg/kg/injection, schedule: Q01DX001 (ip), vehicle: saline",98 % of control
same,T/C,"endpoint: mean survival time, dose: 400.0 mg/kg/injection, schedule: Q01DX001 (ip), vehicle: saline",113 % of control
CN1CCC(C(O)c2ccccc2)CC1 (stereo not drawn),T/C,[1],102 % of control
same,T/C,"endpoint: mean survival time, dose: 200.0 mg/kg/injection, schedule: Q04DX003 (ip), vehicle: saline with Tween-80",100 % of control
same,T/C,"endpoint: mean survival time, dose: 400.0 mg/kg/injection, schedule: Q04DX003 (ip), vehicle: saline with Tween-80",88 % of control
CC[N+](C)(CC)CCOC(=O)c1ccccc1Oc1ccc(C)cc1,T/C,"endpoint: mean survival time, dose: 25.0 mg/kg/injection, schedule: Q01DX009 (ip), vehicle: saline",107 % of control
same,T/C,"endpoint: mean survival time, dose: 50.0 mg/kg/injection, schedule: Q01DX009 (ip), vehicle: saline",107 % of control
O=C1c2ccccc2C(O)(c2[nH]nc3ccccc23)N1c1ccccc1 (stereo not drawn),T/C,[2],103 % of control
same,T/C,"endpoint: mean survival time, dose: 100.0 mg/kg/injection, schedule: Q04DX002 (ip), vehicle: saline with Tween-80",103 % of control
same,T/C,"endpoint: mean survival time, dose: 200.0 mg/kg/injection, schedule: Q04DX002 (ip), vehicle: saline with Tween-80",113 % of control
same,T/C,"endpoint: mean survival time, dose: 400.0 mg/kg/injection, schedule: Q04DX002 (ip), vehicle: saline with Tween-80",106 % of control
O=C(CN1CCCCC1)NC(=O)NC1=C(N2CCCCC2)C(=O)c2ccccc2C1=O,T/C,"endpoint: mean survival time, dose: 100.0 mg/kg/injection, schedule: Q01DX001 (ip), vehicle: other",97 % of control
same,T/C,"endpoint: mean survival time, dose: 200.0 mg/kg/injection, schedule: Q01DX001 (ip), vehicle: other",101 % of control
same,T/C,"endpoint: mean survival time, dose: 400.0 mg/kg/injection, schedule: Q01DX001 (ip), vehicle: other",95 % of control
O=C1CSC1=C(c1ccccc1)c1ccccc1,T/C,"endpoint: mean survival time, dose: 12.5 mg/kg/injection, schedule: Q04DX002 (ip), vehicle: saline with Tween-80",94 % of control
same,T/C,"endpoint: mean survival time, dose: 25.0 mg/kg/injection, schedule: Q04DX002 (ip), vehicle: saline with Tween-80",94 % of control
same,T/C,[2],94 % of control
C1N2CN3CN1CN(C2)C3.[Cl][Pt+2][Cl],T/C,"endpoint: mean survival time, dose: 18.75 mg/kg/injection, schedule: Q04DX003 (ip), vehicle: saline",103 % of control
same,T/C,"endpoint: mean survival time, dose: 37.5 mg/kg/injection, schedule: Q04DX003 (ip), vehicle: saline",106 % of control
same,T/C,"endpoint: mean survival time, dose: 75.0 mg/kg/injection, schedule: Q04DX003 (ip), vehicle: saline",101 % of control
same,T/C,"endpoint: mean survival time, dose: 150.0 mg/kg/injection, schedule: Q04DX003 (ip), vehicle: saline",107 % of control
same,T/C,"endpoint: mean survival time, dose: 300.0 mg/kg/injection, schedule: Q04DX003 (ip), vehicle: saline",103 % of control
